From article PMC6611809, “Actin stabilizing compounds show specific biological effects due to their binding mode” (Scientific Reports, 2019)
pIC50: −log10 of the molar value.

Target: T1, actin (F-actin) (Oryctolagus cuniculus, UniProt P68135)
T1 construct: gene ACTA1; Atto488-labeled F-actin from rabbit skeletal muscle
Test: TIRF displacement of rhodamine-phalloidin from purified actin filaments; supported by pyrene, TIRF and FCS polymerization assays
Format: binding
Source text: TIRF displacement of rhodamine-phalloidin from purified actin filaments; supported by pyrene, TIRF and FCS polymerization assays on actin (F-actin) | Rhodamine-labeled phalloidin could be displaced from actin filaments by MiuA in a concentration dependent manner

pIC50: ~8.30
SMILES: CO/C(=C1/NC(=O)C(Cc2ccc(O)c(Br)c2)N(C)C(=O)C(C)NC(=O)CCC/C=C(\C)CCC(C)OC1=O)c1ccccc1 (stereo not shown) [MiuA, Miuraenamide A]
